Literature values as cited in patent US20030021749A1, “Treatment of cancer and other diseases by administration of positron-emitting radiopharmaceuticals” (priority 2000, published 2003).

Conditions: compared with FDG

Structure (SMILES): C[N+](C)(CF)CCO [FCH, fluorine-18 fluorocholine]
- accumulation in normal brain tissue: does not accumulate in normal brain tissue as readily as FDG
- concentration in tumor tissues: higher concentration in tumor tissues
